The source of these data is patent US20220125051A1, “PRE-HARVEST DESICCATION METHOD” (SYNGENTA CROP PROTECTION AG, priority 2019, published 2022).

Where two headings read alike, the source gives them in different places.

Assay type in all cases: in vivo
Assay [1] concerns Setaria faberi (SETFA). In words: Post-emergence efficacy, Method B. Particulars: read-out: Control of weed species after post-emergence application, SETFA. The protocol: (§1) An “instant formulation”, known as the IF50, containing 50 g/L of the “technical” (i.e. unformulated) active ingredient was prepared by dissolving the active ingredient in a mixture of organic solvents and emulsifier, details of which are provided in the table. This IF50 was then mixed with a small, variable amount of acetone to aid dissolution, before addition of an aqueous solution of 1% v/v ammonium sulphate+1% v/v Empicol ESC70 (Sodium lauryl ether sulphate) adjuvant, as the aqueous diluent, to form an aqueous spray solution which contains a predetermined concentration of the active ingredient (which varies depending on the application rate of the active ingredient to the plants).
(§2) This aqueous spray solution was then sprayed onto the plants, after about 12 days' cultivation. The plants were grown from seeds sown in standard soil, placed in a glasshouse under controlled conditions (at 24/18° C. or 20/16° C., day/night; 16 hours light; 65% humidity). After spray application the plants were then grown on in a glasshouse under the same conditions and watered twice daily. […] the test was evaluated (100=total damage to plant; 0=no damage to plant).
(§3) Ipomoea hederacea (IPOHE), Euphorbia heterophylla (EPHHL), Chenopodium album (CHEAL), Amaranthus retroflexus (AMARE), Lolium perenne (LOLPE), Digitaria sanguinalis (DIGSA), Eleusine indica (ELEIN), Echinochloa crus-galli (ECHCG), Setaria faberi (SETFA)

The test system of assay [2] is Euphorbia heterophylla (EPHHL). In words: Post-emergence efficacy, Method B. As to conditions: read-out: Control of weed species after post-emergence application, EPHHL. As to the method: as §1, §2, §3
Assay [3] relates to Lolium perenne (LOLPE). In words: Post-emergence efficacy, Method B. As to conditions: read-out: Control of weed species after post-emergence application, LOLPE. As to the method:
as §1, §2, §3

For assay [4], the system named is Ipomoea hederacea (IPOHE). The experiment in a line: Post-emergence efficacy, Method B. As to conditions: read-out: Control of weed species after post-emergence application, IPOHE. As to the method:
as §1, §2, §3

Assay [5] has as its system Eleusine indica (ELEIN). The experiment in a line: Post-emergence efficacy, Method B. As to conditions: read-out: Control of weed species after post-emergence application, ELEIN. The protocol: as §1, §2, §3
Assay [6] concerns Digitaria sanguinalis (DIGSA). The experiment in a line: Post-emergence efficacy, Method B. Particulars: read-out: Control of weed species after post-emergence application, DIGSA. As to the method: as §1, §2, §3
In assay [7] the test system is Amaranthus retroflexus (AMARE). The experiment in a line: Post-emergence efficacy, Method B. Particulars: read-out: Control of weed species after post-emergence application, AMARE. The protocol:
as §1, §2, §3

The test system of assay [8] is Echinochloa crus-galli (ECHCG). The experiment in a line: Post-emergence efficacy, Method B. As to conditions: read-out: Control of weed species after post-emergence application, ECHCG. As to the method: as §1, §2, §3
Assay [9] deals with Chenopodium album (CHEAL). The experiment in a line: Post-emergence efficacy, Method B. Particulars: read-out: Control of weed species after post-emergence application, CHEAL. The protocol:
as §1, §2, §3

Assay [10] relates to Setaria faberi (SETFA). The experiment in a line: Post-emergence efficacy, Method A. Particulars: Application rate 500 g/Ha; evaluated after 13 days; 100=total damage to plant, 0=no damage to plant. The method in brief:
(§4)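 Sow in standard soil; grow 14 d under glasshouse control (24/16 °C, 14 h light, 65% humidity). Spray post-emergence with compound formulated in acetone/IF50, diluted in Empicol ESC70 (0.25% or 1%) + 1% ammonium sulphate. Return to glasshouse, water twice daily, score at 13 d on a 0–100 damage scale.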

For assay [11], the system named is Euphorbia heterophylla (EPHHL). The experiment in a line: Post-emergence efficacy, Method A. Particulars: evaluated after 13 days. The method in brief: as §4
Assay [12] has as its system Lolium perenne (LOLPE). The experiment in a line: Post-emergence efficacy, Method A. Particulars: Application rate 500 g/Ha; evaluated after 13 days; 100=total damage to plant, 0=no damage to plant. Put shortly:
as §4

The subject of assay [13] is Eleusine indica (ELEIN). In words: Post-emergence efficacy, Method A. Particulars: evaluated after 13 days. Put shortly:
as §4

In assay [14] the test system is Digitaria sanguinalis (DIGSA). The experiment in a line: Post-emergence efficacy, Method A. Particulars: Application rate 500 g/Ha; evaluated after 13 days; 100=total damage to plant, 0=no damage to plant. The method in brief: as §4
For assay [15], the system named is Echinochloa crus-galli (ECHCG). In words: Post-emergence efficacy, Method A. As to conditions: Application rate 500 g/Ha; evaluated after 13 days; 100=total damage to plant, 0=no damage to plant. The method in brief:
as §4

In the next assay the test system is Glycine Max (GLXMA). In words: Pre-harvest desiccation of crop plants. As to conditions: Table E, evaluated after 7 and 14 days (which not stated), 100=total damage to plant, 0=no damage. As to the method: (§5) Seeds of a variety of test species were sown in standard loam based soil in pots. After cultivation from between 21 and 28 days (post-emergence) under controlled conditions in a glasshouse (at 24/16° C., day/night; 14 hours light; 65% humidity) for warm climate species and (at 20/16° C. day/night; 15 hours light; 65% humidity) for cool climate species.
(§6) The plants were sprayed with an aqueous spray solution derived from dissolving the technical active ingredient formula in a small amount of acetone and a special solvent and emulsifier mixture referred to as IF50 (11.12% Emulsogen EL360 TM+44.44% N-methylpyrrolidone+44.44% Dowanol DPM glycol ether), to create a 50 g/I solution which was then diluted to required concentration using a solution of 1% Empicol ESC70 (Sodium lauryl ether sulphate)+1% ammonium sulphate in water as diluent.
(§7) The delivery of the aqueous spray solution was via a laboratory track sprayer which delivered the aqueous spray composition at a rate of 200 litres per hectare, using a flat fan nozzle (Teejet 11002VS) and an application volume of 200 litre/ha (at 2 bar).
(§8) The test plants were then grown in a glasshouse under controlled conditions (at 24/16° C., day/night; 14 hours light; 65% humidity) for warm climate species and (at 20/16° C. day/night; 15 hours light; 65% humidity) for cool climate species and watered twice daily. After 7 and 14 days the test was evaluated (100=total damage to plant; 0=no damage to plant).
(§9) A value of n/t indicates not tested.
(§10) Glycine Max (GLXMA), Solanum turberosum (SOLTU), Gossypium hirsutum (GOSHI), Brassica napus (BRSNN), Helianthus annus (HELAN)

For assay [16], the system named is Solanum turberosum (SOLTU). The experiment in a line: Pre-harvest desiccation of crop plants. As to conditions: Table E, evaluated after 7 and 14 days (which not stated), 100=total damage to plant, 0=no damage. As to the method: as §5, §6, §7, §8, §9, §10
The next assay has as its system Brassica napus (BRSNN). In words: Pre-harvest desiccation of crop plants. As to conditions: Table E, evaluated after 7 and 14 days (which not stated), 100=total damage to plant, 0=no damage. As to the method:
as §5, §6, §7, §8, §9, §10

Assay [17] relates to Gossypium hirsutum (GOSHI). The experiment in a line: Pre-harvest desiccation of crop plants. Particulars: Table E, evaluated after 7 and 14 days (which not stated), 100=total damage to plant, 0=no damage. The protocol: as §5, §6, §7, §8, §9, §10
The test system of assay [18] is Amaranthus palmeri (AMAPA). In words: Post-emergence efficacy, Method A. Particulars: Amaranthus palmeri, post-emergence, 312 h; Application Rate 500 g/Ha; evaluated after 13 days; Method A; read-out: Control of weed species after post-emergence application, AMAPA (100=total damage to plant; 0=no damage to plant). Put shortly: as §4
The subject of assay [19] is Chenopodium album (CHEAL). The experiment in a line: Post-emergence efficacy, Method A. As to conditions: Chenopodium album, post-emergence, 312 h; Application Rate 500 g/Ha; evaluated after 13 days; Method A; read-out: Control of weed species after post-emergence application, CHEAL (100=total damage to plant; 0=no damage to plant). The method in brief:
as §4

Setting [20] is: Application rate 500 g/Ha, 100=total damage to plant, 0=no damage to plant.
Where [21] appears, read: Method B, 1000 g/Ha, 100=total damage to plant, 0=no damage.

For the compound `O=S(=O)([O-])CC[n+]1ccc(-c2cccnn2)cn1` [Compound A213, 2-(4-pyridazin-1-ium-3-ylpyridazin-1-ium-1-yl)ethanesulfonate chloride], the pest or weed control at 1000 g/ha was determined as 100% in the assay with Setaria faberi (SETFA) [1]; 100% in assay [2]; 90% in the assay on Lolium perenne (LOLPE) [3]; 80% in assay [4]; 100% in the assay on Eleusine indica (ELEIN) [5]; 100% in [6]. Further, the pest or weed control at 1000 g/ha in [7] was 100%; in [8], 100%; in assay [9], 80%.
Consider `Nc1ccnc(-c2cc[n+](CCC(=O)O)nc2)n1` [Compound A41], for which the pest or weed control at 1000 g/ha in the assay on Setaria faberi (SETFA) [1] came out at 100%; in assay [2] it was 100%; in the assay on Lolium perenne (LOLPE) [3] it was 60%; in [4], 20%; with Eleusine indica (ELEIN) [5] it was 50%; in assay [6], 100%. In addition, the pest or weed control at 1000 g/ha amounted to 100% in assay [7], 100% in assay [8] and 90% in assay [9].
With `O=C(O)CC[n+]1ccc(-c2ncccn2)cn1.[Cl-]` [Compound A26, 3-(4-pyrimidin-2-ylpyridazin-1-ium-1-yl)propanoic acid chloride], in the assay with Setaria faberi (SETFA) [10], the “Control of weed species after post-emergence application, SETFA” value is 100. Further, the “Control of weed species after post-emergence application, EPHHL” value in assay [11] (setting [20]) worked out at 100. For the same compound, in the assay on Lolium perenne (LOLPE) [12], the “Control of weed species after post-emergence application, LOLPE” value is given as 90. In the assay with Eleusine indica (ELEIN) [13] (setting [20]), the “Control of weed species after post-emergence application, ELEIN” value worked out at 100. Further, in assay [14], the “Control of weed species after post-emergence application, DIGSA” value was 100. For the same compound, in assay [15], the “Control of weed species after post-emergence application, ECHCG” value was determined as 100. In addition, the “Post-emergence dessication efficacy, GLXMA” value with Glycine Max (GLXMA) (150 g/Ha) worked out at 96; in the assay with Glycine Max (GLXMA) (300 g/Ha), 93; in the assay on Glycine Max (GLXMA) (600 g/Ha), 99. In addition, the “Post-emergence dessication efficacy, SOLTU” value in assay [16] (150 g/Ha) is 62; in assay [16] (300 g/Ha), 95; in assay [16] (600 g/Ha) it was 73. Also, the “Post-emergence dessication efficacy, BRSNN” value with Brassica napus (BRSNN) (150 g/Ha) worked out at 65; in the assay with Brassica napus (BRSNN) (300 g/Ha) it was 97; in the assay on Brassica napus (BRSNN) (600 g/Ha) it was 99. The “Post-emergence dessication efficacy, GOSHI” value in [17] (150 g/Ha), in assay [17] (300 g/Ha) and in assay [17] (600 g/Ha) was 100 throughout.
In the case of `N#C[N-]C(=O)CC[n+]1ccc(-c2ncccn2)cn1` [Compound A226], the pest or weed control at 1000 g/ha with Setaria faberi (SETFA) [1] (setting [21]) stood at 70%; with Lolium perenne (LOLPE) [3] (setting [21]) it was 70%; in assay [4] (setting [21]), 100%; in assay [6] (setting [21]) it was 100%; in [7] (setting [21]), 100%; in [8] (setting [21]), 100%. The pest or weed control at 1000 g/ha in [9] (setting [21]) came to 100%.
Take `N[C@@H](CCC[n+]1ccc(-c2ncccn2)cn1)C(=O)O` [Compound A211, [(1S)-1-carboxy-4-(4-pyrimidin-2-ylpyridazin-1-ium-1-yl)butyl]ammonium dichloride]: the pest or weed control at 500 g/ha in the assay with Setaria faberi (SETFA) [1] is 100%; in assay [2] it was 80%; with Lolium perenne (LOLPE) [3], 10%; in [4], 100%; with Eleusine indica (ELEIN) [5], 100%; in assay [6] it was 100%. The pest or weed control at 500 g/ha was 100% in [7], 100% in assay [8] and 90% in [9].
In the case of `N[C@H](CC[n+]1ccc(-c2ncccn2)cn1)C(=O)O` [Compound A207, [(1R)-1-carboxy-3-(4-pyrimidin-2-ylpyridazin-1-ium-1-yl)propyl]ammonium 2,2,2-trifluoroacetate], the pest or weed control at 500 g/ha in assay [11] (Euphorbia heterophylla, post-emergence, 312 h, Application Rate 500 g/Ha, Method A, read-out: Control of weed species after post-emergence application, EPHHL (100=total damage to plant; 0=no damage to plant)) was found to be 90%; with Eleusine indica (ELEIN) [13] (Eleusine indica, post-emergence, 312 h, Application Rate 500 g/Ha, Method A, read-out: Control of weed species after post-emergence application, ELEIN (100=total damage to plant; 0=no damage to plant)), 100%; in [18], 100%; in [19] it was 100%. The pest or weed control at 1000 g/ha in the assay with Setaria faberi (SETFA) [1] was 100%; in assay [2], 70%; in the assay on Lolium perenne (LOLPE) [3], 20%; in assay [4], 100%; in the assay on Eleusine indica (ELEIN) [5] it was 100%; in assay [6], 90%. Also, the figures for the pest or weed control at 1000 g/ha in assay [7], in [8] and in assay [9] were 100%, 100% and 90%, respectively.
